Assay results as given in patent US9884857B2, “Salts of dasatinib in amorphous form” (BASF SE, priority 2013, dated 2018).

Legend:
[1] = 11 months of storage at room temperature (Example 1: closed glass vial)
Procedure: Powder X-Ray Diffraction:
The measurements are carried out with a Bruker D8 Advance powder X-ray diffractometer using Cu Kα radiation in the Bragg-Brentano reflection geometry. Generally, the 2θ values are accurate within an error of ±0.1-0.2°. The relative peak intensities can vary considerably for different samples of the same crystalline form because of different preferred orientations of the crystals. The samples are prepared without any special treatment other than the application of slight pressure to get a flat surface. Generally, silicon single crystal sample holders of 0.1 mm, 0.5 mm or 1.0 mm depth are used. The tube voltage and current are 40 kV and 40 mA, respectively. The X-ray diffractometer is equipped with a LynxEye detector. A variable divergence slight is used with a 3° window. The step size is 0.02° 2θ with a step time of 37 seconds. The samples are rotated at 0.5 rps during the measurement.

[2] = heating rate 10° C. per minute, dried sample
Procedure: Differential scanning calorimetry: DSC is carried out with a TA Instruments DSC Q2000 using hermetically sealed gold sample pans. The heating rate is 10° C. per minute. Samples are dried under nitrogen before sample pans are closed under nitrogen.

[3] = after two hours equilibration at 25° C.; resulting pH value 4.6
Procedure: Solubility Determinations:
Solubility determinations are carried out in pure water at 25±2° C. Suspensions with about 10 mg salt in 0.5 mL water are prepared and equilibrated for two hours before the solution phase is filtered off and tested by HPLC.
HPLC is carried out on an Agilent 1100 HPLC chromatograph equipped with a UV-vis detection unit. […] The column type used is a Waters XTerra MS C18, 250×4.6 mm, 5 μm (FK-CC14). The method as referenced above is an isocratic method using an aqueous ammonium acetate/acetic acid and methanol with a ratio of 55/45. The applied flow rate is 1.0 mL per minute, the injection volume is 20 microliter and the detection wavelength is 321 nm.

Row | Structure (SMILES) | crystalline material by powder X-ray diffraction after storage [1] | glass transition (DSC step) [2] | aqueous solubility [3]
1 | Cc1nc(Nc2ncc(C(=O)Nc3c(C)cccc3Cl)s2)cc(N2CCN(CCO)CC2)n1.O=C(O)c1cccnc1 [Example 3, Dasatinib nicotinate] | no crystalline material is present |  | 
2 | Cc1nc(Nc2ncc(C(=O)Nc3c(C)cccc3Cl)s2)cc(N2CCN(CCO)CC2)n1.O=C(O)CCCC(=O)O [Example 2, Dasatinib glutarate] | no crystalline material is present |  | 
3 | Cc1nc(Nc2ncc(C(=O)Nc3c(C)cccc3Cl)s2)cc(N2CCN(CCO)CC2)n1.O=C1NS(=O)(=O)c2ccccc21 [Example 1, Dasatinib saccharinate] | no crystalline material was present | ~130 °C | 1330 µg/mL
4 | Cc1nc(Nc2ncc(C(=O)Nc3c(C)cccc3Cl)s2)cc(N2CCN(CCO)CC2)n1.O=C1NS(=O)(=O)c2ccccc21 [Example 4, Dasatinib saccharinate] |  | about 113 °C | 
